Source: patent publication US11833137B2, “Substituted chromenones, IRE1 inhibitors, and methods of using same” (The Wistar Institute, priority 2018, dated 2023)

Experiments:
[1] = tested on: XBP-1s expression, CD5+ CLL cells from Eμ-TCL1 mice; details: cited from earlier work
MEC2 cells = details: cited from earlier work
CLL cells in PBMCs = assay: CLL burden in B-I09-injected MD4+/−/Eμ-TCL1+/+ mice; type: in vivo, mouse; details: 50 mg/kg intraperitoneally, days 1-5 and 8-12
Method: FIGS. 24A-24J illustrate the finding that targeting XBP-1s in CLL cells of MD4^+/−/Eμ-TCL1^+/+ mice leads to reduced production of sIgM, and decreased numbers and function of granulocytic MDSCs. (FIG. 24A) The levels of IgM in the sera of MD4^+/−/Eμ-TCL1^+/+ and XBP-1^KO/MD4^+/−/Eμ-TCL1^+/+ mice were determined by ELISA. (FIG. 24B) Blood cells collected from MD4^+/−/Eμ-TCL1^+/+ and XBP-1^KO/MD4^+/−/Eμ-TCL1^+/+ mice were treated with RBC lysis buffer, and stained with CD11c-BV421, CD11b-PE, Ly6C-Alexa 488 and Ly6G-Alexa 647. Gated CD11c−/CD11b+ populations were analyzed for Ly6C^intermediate/Ly6G+ granulocytic MDSCs and Ly6C+/Ly6G− monocytic MDSCs. […] Gated CD11b+/Ly6C^intermediate/Ly6G+ granulocytic MDSCs were analyzed for the expression of Arg-1. (FIG. 24F) Mean fluorescence intensity (MFI) of Arg-1 in gated CD11b+/Ly6C^intermediate/Ly6G+ granulocytic MDSCs from spleens of 5 MD4^+/−/Eμ-TCL1^+/+ and 5 XBP-1^KO/MD4^+/−/Eμ-TCL1^+/+ mice was plotted as mean±SEM. […] The ^3H-thymidine uptake was measured, and the percentages of proliferation were calculated by comparing to the positive control and plotted as mean±SEM. […] The percentage of CLL cells in PBMCs for each mouse was determined by flow cytofluorometry on day 6 and day 13, and compared with the CLL burden data of the mouse on day 0 (100%). […]

In the case of `O=c1oc2c(C3OCCCO3)c(O)ccc2c2c1CNCC2` [Compound 4, 7-(1,3-dioxan-2-yl)-8-hydroxy-1,2,3,4-tetrahydro-5H-chromeno[3,4-c]pyridin-5-one], the “expression of XBP-1s in CLL cells” value [1] is given as “can inhibit the expression of XBP-1s in CLL cells”, the “sensitivity of MEC2 cells” value (MEC2 cells) is given as “less sensitive” and the “CLL burden in peripheral blood” value (CLL cells in PBMCs) is given as “leukemic regression was observed”.
